Experimental data taken from patent US8715681B2, “Minimal motifs of linear B-cell epitopes in L1 protein from human papillomavirus type 58 and their applications” (Hengsun Pharmaceutical Technology Co. Ltd., priority 2012, dated 2014).
Ends that are not written are not given here.

Tested on: rabbit serum raised against r-L1C
Assay: Epitope mapping of 18-mer peptide-GST188 fusion proteins by Western blotting with anti-r-L1C rabbit serum
Assay type: binding
Details: 18-mer peptides P25-P60 fused with GST188
Excerpt: 1. The clone of HPV 58 genome was purchased from commercial resource (20). With regular PCR method, the N terminal and C terminal of full-length HPV58-L1 cDNA were amplified from the HPV 58 genome we purchased and then were reconstructed into pRSET-C fusion expression plasmid. The expressed r-L1N^36-233 and r-L1C^226-524 proteins were purified from E. coli, and finally used as antigen to immunize three New Zealand white rabbits to prepare rabbit antisera against r-L1N^36-233 or r-L1C^226-524, respectively.
2. Previously we have constructed a fusion expression plasmid pXXGST-1 specially used for 8/18-mer short peptide biosynthesis in epitope mapping. In this plasmid, the macromolecule protein carrier was a truncated glutathione S-transferases (GST) with 188 residues (GST188) (China Patent NO.: 200710173305.2; 18). DNA recombinant technology was employed to express two sets of 18-mer peptides overlapping each other by 10 residues covering the domains of L1N^36-233 and L1C^226-524 fused with GST188, respectively. Specifically the DNA fragments encoding different short peptide were inserted into pXXGST-1 plasmid after annealing of chemically synthesized plus and minus DNA strands to double-strand DNA. […]

P27: biosynthetic 18-mer peptide of HPV58 L1 fused with GST188; contains DVPID (NKSDVPIDICNSTCKYPD; not fully specified (N-terminus); cysteine pairing not given here)
reactivity in Western blotting: reactive
